Like-named read-outs stand apart in the source and are kept apart here.
Molecular target: T1, SIRT1 (Homo sapiens, UniProt Q96EB6)
T1 sequence (Q96EB6 1-747): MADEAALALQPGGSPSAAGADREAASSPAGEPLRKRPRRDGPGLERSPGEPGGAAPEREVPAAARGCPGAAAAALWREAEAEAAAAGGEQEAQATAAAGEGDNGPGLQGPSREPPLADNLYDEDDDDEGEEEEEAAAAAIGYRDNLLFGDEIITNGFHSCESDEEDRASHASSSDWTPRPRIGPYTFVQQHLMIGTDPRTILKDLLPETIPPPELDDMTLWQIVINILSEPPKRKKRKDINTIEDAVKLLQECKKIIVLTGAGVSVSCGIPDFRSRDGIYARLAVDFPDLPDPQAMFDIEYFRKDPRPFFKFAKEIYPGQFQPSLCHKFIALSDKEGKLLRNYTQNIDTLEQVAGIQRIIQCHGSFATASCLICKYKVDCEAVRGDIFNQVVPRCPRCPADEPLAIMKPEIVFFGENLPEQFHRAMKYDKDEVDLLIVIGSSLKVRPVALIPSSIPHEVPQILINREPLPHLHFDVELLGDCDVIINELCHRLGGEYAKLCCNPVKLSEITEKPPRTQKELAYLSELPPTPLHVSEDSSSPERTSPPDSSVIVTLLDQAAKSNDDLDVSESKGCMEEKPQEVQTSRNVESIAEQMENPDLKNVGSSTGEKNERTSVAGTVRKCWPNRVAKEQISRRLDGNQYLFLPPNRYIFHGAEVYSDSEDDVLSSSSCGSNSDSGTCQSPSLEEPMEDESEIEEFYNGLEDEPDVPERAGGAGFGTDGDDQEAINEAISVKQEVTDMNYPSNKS
Assay: Trp mass spectrometry assay of SIRT1 activation
Format: biochemical
Conditions: for TRP Activity (EC1.5): EC1.5 = concentration that results in 150% activation of SIRT1; for Emax: read-out: TRP MAX RESP (percent maximum fold activation)
Outline: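 N-terminal His-tagged human SIRT1 (10 nM, E. coli BL21(DE3)) with 0.5 μM Ac-RHKK(Ac)W-NH2 peptide and 120 μM βNAD+, 25 min at 25 °C in HEPES pH 7.5, formic acid stop. OAADPR or deacetylated peptide quantified by mass spectrometry; EC1.5 (50% activity increase over control) and Percent Maximum Activation reported.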

[1] = Trp peptide assay, maximum activity relative to control (100%)

Compound	TRP Activity (EC1.5) (Trp peptide assay)	Emax [1]	Emax
Cc1cc(-c2ccc3c(n2)N(C(=O)Nc2nccnc2F)[C@H]2CCN3C2)ccn1 [(9S)-N-(3-fluoropyrazin-2-yl)-5-(2-methylpyridin-4-yl)-1,6,8-triazatricyclo[7.2.1.0^{2,7}]dodeca-2,4,6-triene-8-carboxamide]	B (B (EC1.5 1-25 μM))	> 150%	
Cc1cc(-c2ccc3c(n2)N(C(=O)Nc2cccc4nnc(C)cc24)[C@H]2CCN3C2)ccn1 [(9S)-N-(3-methylcinnolin-5-yl)-5-(2-methylpyridin-4-yl)-1,6,8-triazatricyclo[7.2.1.0 {2,7}]dodeca-2(7),3,5-triene-8-carboxamide]	B (B (EC1.5 1-25 μM))	> 150%	
Cc1ccnc(NC(=O)N2c3nc(-c4ccnc(C)c4)ccc3N3CC[C@H]2C3)c1 [(9S)-N-(4-methylpyridin-2-yl)-5-(2-methylpyridin-4-yl)-1,6,8-triazatricyclo[7.2.1.0^2,7]dodeca-2,4,6-triene-8-carboxamide]	B (B (EC1.5 1-25 μM))	> 150%	
Cc1cc(-c2ccc3c(n2)N(C(=O)Nc2cnc(C4CC4)cn2)[C@H]2CCN3C2)ccn1 [(9S)-N-(5-cyclopropylpyrazin-2-yl)-5-(2-methylpyridin-4-yl)-1,6,8-triazatricyclo[7.2.1.0 {2,7}]dodeca-2(7),3,5-triene-8-carboxamide]	A (A (EC1.5<1 μM))	> 150%	
CCOc1cnc(NC(=O)N2c3nc(-c4ccnc(C)c4)ccc3N3CC[C@H]2C3)cn1 [(9S)-N-(5-ethoxypyrazin-2-yl)-5-(2-methylpyridin-4-yl)-1,6,8-triazatricyclo[7.2.1.0 {2,7}]dodeca-2(7),3,5-triene-8-carboxamide]	B (B (EC1.5 1-25 μM))	> 150%	
CCc1cnc(NC(=O)N2c3nc(-c4ccnc(C)c4)ccc3N3CC[C@H]2C3)cn1 [(9S)-N-(5-ethylpyrazin-2-yl)-5-(2-methylpyridin-4-yl)-1,6,8-triazatricyclo[7.2.1.0 {2,7}]dodeca-2(7),3,5-triene-8-carboxamide]	A (A (EC1.5<1 μM))	> 150%	
CCc1cnc(NC(=O)N2c3nc(-c4ccc(C)nc4)ccc3N3CC[C@H]2C3)cn1 [(9S)-N-(5-ethylpyrazin-2-yl)-5-(6-methylpyridin-3-yl)-1,6,8-triazatricyclo[7.2.1.0^{2,7}]dodeca-2,4,6-triene-8-carboxamide]	B (B (EC1.5 1-25 μM))	> 150%	
O=C(Nc1cncc(F)c1)N1c2nc(-c3ccnc(C(F)(F)F)c3)ccc2N2CCC[C@H]1C2 [(9S)-N-(5-fluoropyridin-3-yl)-5-[2-(trifluoromethyl)pyridin-4-yl]-1,6,8-triazatricyclo[7.3.1.0 {2,7}]trideca-2(7),3,5-triene-8-carboxamide]	A (A (EC1.5<1 μM))	> 150%	
Cc1cncc(NC(=O)N2c3nc(-c4ccnc(C)c4)ccc3N3CC[C@H]2C3)c1 [(9S)-N-(5-methylpyridin-3-yl)-5-(2-methylpyridin-4-yl)-1,6,8-triazatricyclo[7.2.1.0 {2,7}]dodeca-2(7),3,5-triene-8-carboxamide]	B (B (EC1.5 1-25 μM))	> 150%	
Cc1cc(-c2ccc3c(n2)N(C(=O)Nc2cncc(C4CC4)n2)[C@H]2CCN3C2)ccn1 [(9S)-N-(6-cyclopropylpyrazin-2-yl)-5-(2-methylpyridin-4-yl)-1,6,8-triazatricyclo[7.2.1.0 {2,7}]dodeca-2(7),3,5-triene-8-carboxamide]	A (A (EC1.5<1 μM))	> 150%	
CCOc1cncc(NC(=O)N2c3nc(-c4ccnc(C)c4)ccc3N3CC[C@H]2C3)n1 [(9S)-N-(6-ethoxypyrazin-2-yl)-5-(2-methylpyridin-4-yl)-1,6,8-triazatricyclo[7.2.1.0 {2,7}]dodeca-2(7),3,5-triene-8-carboxamide]	A (A (EC1.5<1 μM))	> 150%	
CCc1cncc(NC(=O)N2c3nc(-c4ccnc(C)c4)ccc3N3CC[C@H]2C3)n1 [(9S)-N-(6-ethylpyrazin-2-yl)-5-(2-methylpyridin-4-yl)-1,6,8-triazatricyclo[7.2.1.0 {2,7}]dodeca-2(7),3,5-triene-8-carboxamide]	A (A (EC1.5<1 μM))	> 150%	
Cc1ccc(-c2ccc3c(n2)N(C(=O)Nc2nc4ccc(F)cc4s2)[C@H]2CCN3C2)cn1 [(9S)-N-(6-fluoro-1,3-benzothiazol-2-yl)-5-(6-methylpyridin-3-yl)-1,6,8-triazatricyclo[7.2.1.0 {2,7}]dodeca-2,4,6-triene-8-carboxamide]	B (B (EC1.5 1-25 μM))		> 150%
Cc1cc(-c2ccc3c(n2)N(C(=O)Nc2cncc(F)n2)[C@H]2CCN3C2)ccn1 [(9S)-N-(6-fluoropyrazin-2-yl)-5-(2-methylpyridin-4-yl)-1,6,8-triazatricyclo[7.2.1.0 {2,7}]dodeca-2(7),3,5-triene-8-carboxamide]	A (A (EC1.5<1 μM))	> 150%	
COc1cncc(NC(=O)N2c3nc(-c4ccnc(C)c4)ccc3N3CCC[C@H]2C3)n1 [(9S)-N-(6-methoxypyrazin-2-yl)-5-(2-methylpyridin-4-yl)-1,6,8-triazatricyclo[7.3.1.0 {2,7}]trideca-2(7),3,5-triene-8-carboxamide]	A (A (EC1.5<1 μM))	> 150%	
Cc1cc(-c2ccc3c(n2)N(C(=O)Nc2cncc(C)n2)[C@H]2CCCN3C2)ccn1 [(9S)-N-(6-methylpyrazin-2-yl)-5-(2-methylpyridin-4-yl)-1,6,8-triazatricyclo[7.3.1.0 {2,7}]trideca-2(7),3,5-triene-8-carboxamide]	B (B (EC1.5 1-25 μM))	> 150%	
Cc1ccc(-c2ccc3c(n2)N(C(=O)Nc2cncc(C)n2)[C@H]2CCN3C2)cn1 [(9S)-N-(6-methylpyrazin-2-yl)-5-(6-methylpyridin-3-yl)-1,6,8-triazatricyclo[7.2.1.0 {2,7}]dodeca-2,4,6-triene-8-carboxamide]	B (B (EC1.5 1-25 μM))	> 150%	
Cc1ccc(NC(=O)N2c3nc(-c4ccnc(C)c4)ccc3N3CC[C@H]2C3)cn1 [(9S)-N-(6-methylpyridin-3-yl)-5-(2-methylpyridin-4-yl)-1,6,8-triazatricyclo[7.2.1.0 {2,7}]dodeca-2(7),3,5-triene-8-carboxamide]	B (B (EC1.5 1-25 μM))	> 150%	
Cc1ccc(-c2ccc3c(n2)N(C(=O)NCC2CC2)[C@H]2CCN3C2)cn1 [(9S)-N-(cyclopropylmethyl)-5-(6-methylpyridin-3-yl)-1,6,8-triazatricyclo[7.2.1.0^{2,7}]dodeca-2,4,6-triene-8-carboxamide]	B (B (EC1.5 1-25 μM))	> 150%	
Cc1cc(-c2ccc3c(n2)N(C(=O)Nc2nc(C)c(C)s2)[C@H]2CCCN3C2)ccn1 [(9S)-N-(dimethyl-1,3-thiazol-2-yl)-5-(2-methylpyridin-4-yl)-1,6,8-triazatricyclo[7.3.1.0 {2,7}]trideca-2(7),3,5-triene-8-carboxamide]	A (A (EC1.5<1 μM))	> 150%	
Cc1ccc(-c2ccc3c(n2)N(C(=O)Nc2cccc4cnccc24)[C@H]2CCN3C2)cn1 [(9S)-N-(isoquinolin-5-yl)-5-(6-methylpyridin-3-yl)-1,6,8-triazatricyclo[7.2.1.0 {2,7}]dodeca-2,4,6-triene-8-carboxamide]	B (B (EC1.5 1-25 μM))	> 150%	
O=C(Nc1cnccn1)N1c2nc(-c3ccn[nH]3)ccc2N2CC[C@H]1C2 [(9S)-N-(pyrazin-2-yl)-5-(1H-pyrazol-5-yl)-1,6,8-triazatricyclo[7.2.1.0 {2,7}]dodeca-2(7),3,5-triene-8-carboxamide]	B (B (EC1.5 1-25 μM))	> 150%	
O=C(Nc1cnccn1)N1c2nc(-c3ccnc(C(F)(F)F)c3)ccc2N2CCC[C@H]1C2 [(9S)-N-(pyrazin-2-yl)-5-[2-(trifluoromethyl)pyridin-4-yl]-1,6,8-triazatricyclo[7.3.1.0 {2,7}]trideca-2(7),3,5-triene-8-carboxamide]	A (A (EC1.5<1 μM))	> 150%	
O=C(Nc1cnccn1)N1c2nc(-c3ccnc(C(F)(F)F)n3)ccc2N2CC[C@H]1C2 [(9S)-N-(pyrazin-2-yl)-5-[2-(trifluoromethyl)pyrimidin-4-yl]-1,6,8-triazatricyclo[7.2.1.0 {2,7}]dodeca-2(7),3,5-triene-8-carboxamide]	B (B (EC1.5 1-25 μM))	> 150%	
